Measurements: US20240374612A1, “IMIDAZOBENZO[…] TREATMENT OF COGNITIVE AND MOOD SYMPTOMS” (UWM Research Foundation, Inc., priority 2021, published 2024)

Key:
α2β3γ2 GABAA receptor = target: T1, α2β3γ2 GABAA receptor (Homo sapiens, UniProt P18507+P47869); test: Electrophysiology in transfected cells (IonWorks Barracuda), PAM effect on current induced by 5 μM GABA; assay type: cell-based
T1 construct: Full-length cDNAs for GABAA receptor subtypes are transfected into the human embryonic kidney cell line HEK-293T; expressed in transfected cells; host or cells: human mammalian cells (HEK-293T per Procedure B)
Experimental: (§1) Procedure B: Full-length cDNAs for GABAA receptor subtypes are transfected into the human embryonic kidney cell line HEK-293T. All subtypes are rat clones except for α2, which is a human clone. Cells are patch-clamped at −50 mV in the whole-cell recording configuration. GABA is diluted into the bath and compounds are dissolved in DMSO and diluted into bath solution. Solutions containing GABA or GABA+ compounds are applied to cells for 5 s. Currents are recorded with an Axon 200B patch clamp amplifier. Data is normalized data current expressed as a percentage of the response to GABA alone for each cell.
(§2) Electrophysiological Characterization of GL-III-68 by Procedure B: Human mammalian cells are transfected with human […] GABAA receptors. Cells are incubated with GL-III-68 at a range of concentrations from 0.03 μM to 100 μM. Currents are induced by stimulation with 5 μM GABA and recorded using the IonWorks Barracuda® test platform. Current is normalized to the current induced by 5 μM of GABA in the absence of any allosteric modulator. PAM effect of at different subtypes of GABA^A receptor. % of current was calculated relatively to current produced by 5 μM GABA alone (set to 100%) (FIG. 21). EC50 results are shown below.

α3β3γ2 GABAA receptor = target: T2, α3β3γ2 GABAA receptor (Homo sapiens, UniProt P18507+P34903); test: as above; assay type: cell-based
T2 construct: Full-length cDNAs for GABAA receptor subtypes are transfected into the human embryonic kidney cell line HEK-293T; expressed in transfected cells; host or cells: human mammalian cells (HEK-293T per Procedure B)
Experimental: as §1, §2

α1β3γ2 GABAA receptor = target: T3, α1β3γ2 GABAA receptor (Homo sapiens, UniProt P14867+P18507); test: as above; assay type: cell-based
T3 construct: Full-length cDNAs for GABAA receptor subtypes are transfected into the human embryonic kidney cell line HEK-293T; expressed in transfected cells; host or cells: human mammalian cells (HEK-293T per Procedure B)
Experimental: as §1, §2

α5β3γ2 GABAA receptor = target: T4, α5β3γ2 GABAA receptor (Homo sapiens, UniProt P18507+P31644); test: as above; assay type: cell-based
T4 construct: Full-length cDNAs for GABAA receptor subtypes are transfected into the human embryonic kidney cell line HEK-293T; expressed in transfected cells; host or cells: human mammalian cells (HEK-293T per Procedure B)
Experimental: as §1, §2

[1] = test system: C57/Bl6 mice subjected to chronic restraint stress (working memory deficit); test: Y-maze alternation task after chronic restraint stress (CRS); assay type: in vivo; conditions: 10 mg/kg i.p., acute, 30 min before testing, vs CRS vehicle
Experimental: Young Animals and chronic stress procedure: C57/Bl6 mice, males and females at 8 weeks old and are kept in normal housing conditions (12 h light ON cycle starting at 7 am/water and food ad libitum) for one week. During this week, animals are single housed and handled to reduce the anxiety-like response toward the experimenter. To induce a working memory deficit, mice are subjected to a chronic restraint stress protocol (CRS). They are placed in a 50 mL Falcon® tube, twice a day, for 1 hour during their diurnal cycle. The time of occurrence of the stress is randomized every day to avoid predictability. CRS is not applied on testing days. Y-maze test occurs 15 hours minimum after the last stressor.
Protocol: Mice are first habituated to the Y-maze apparatus and distal cues during 2 consecutive days over a 10 min free exploration session (one session per day). The next day, animals perform a training session consisting in seven successive trials separated by a 30 s inter-trial interval (ITI); during this training session, mice are familiarized with the experimental procedure (opening and closing of the doors and confinement into the goal arms). For each trial, mice remain in the start-box for a 30 s ITI. Then, the door is opened and the mouse is allowed to enter freely one of the two goal arms; the chosen arm is closed and the choice is recorded. After a 30 s confinement period into the chosen arm, the mouse is removed and brought back to the start-box for a second trial identical to the first one and this procedure is repeated over the series of trials.
The same general procedure used in the training session is implemented 24 h later, except that the ITI was lengthened to 90 s. For this experiment, animals are acutely injected i.p. with vehicle or drug, 30 minutes before the beginning of the test. To dissociate memory deficits from an eventual progressive loss of motivation to alternate over the series, an 8th trial is added to the series which is separated from the 7th trial by a shorter ITI (5 s). All animals failing to alternate at the 8th trial are excluded. The mean alternation rate is calculated and is expressed in percentage (number of alternation done by the animal/total number of alternation possible×100)±SEM. The percentage of alternation during the entire task is considered as an index of working memory performance (50% of being a random alternation rate). Factorial ANOVA is applied to the data to reveal differences between groups. If the ANOVA is significant for group effect (p<0.05), Scheffe post-hoc analysis are conducted to identify which groups are different from each other.
Drug preparation and administration: All drugs are diluted in a vehicle solution containing 85% H2O, 14% propylene glycol (Sigma Aldrich) and 1% Tween 80 (Sigma Aldrich). Working solutions are prepared at a concentration of 10 mg/mL and administered i.p. adjusted to the body weight of each animal. Doses used are either 1, 5, 10 or 20 mg/kg. For all Y maze experiments, animals are acutely injected i.p. with vehicle or drug, 30 minutes before the beginning of the test.

T1 sequence (P47869 29-451): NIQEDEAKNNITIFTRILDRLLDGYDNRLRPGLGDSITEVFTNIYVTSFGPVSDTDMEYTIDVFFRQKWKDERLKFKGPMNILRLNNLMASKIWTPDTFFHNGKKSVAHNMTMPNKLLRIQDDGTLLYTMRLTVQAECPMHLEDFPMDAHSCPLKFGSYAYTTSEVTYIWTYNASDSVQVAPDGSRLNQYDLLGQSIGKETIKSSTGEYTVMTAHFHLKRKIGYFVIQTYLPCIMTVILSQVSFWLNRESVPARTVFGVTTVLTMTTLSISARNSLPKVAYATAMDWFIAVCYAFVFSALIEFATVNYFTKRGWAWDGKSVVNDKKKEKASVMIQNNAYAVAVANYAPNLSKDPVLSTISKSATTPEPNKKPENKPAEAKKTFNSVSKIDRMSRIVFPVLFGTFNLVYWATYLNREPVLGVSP
T1 sequence (P28472 26-473 partner): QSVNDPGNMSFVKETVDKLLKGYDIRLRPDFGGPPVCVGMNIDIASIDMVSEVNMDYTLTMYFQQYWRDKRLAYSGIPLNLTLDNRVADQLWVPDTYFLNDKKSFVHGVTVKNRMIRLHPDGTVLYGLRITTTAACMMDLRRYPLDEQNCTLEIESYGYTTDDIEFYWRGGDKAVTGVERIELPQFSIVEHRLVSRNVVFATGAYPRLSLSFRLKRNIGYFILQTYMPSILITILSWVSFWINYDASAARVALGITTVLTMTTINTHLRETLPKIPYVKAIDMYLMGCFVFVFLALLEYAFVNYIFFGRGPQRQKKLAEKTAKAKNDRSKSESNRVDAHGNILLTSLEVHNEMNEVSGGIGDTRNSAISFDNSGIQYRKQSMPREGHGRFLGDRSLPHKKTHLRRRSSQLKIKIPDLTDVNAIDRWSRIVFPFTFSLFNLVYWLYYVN
T1 sequence (P18507 40-475): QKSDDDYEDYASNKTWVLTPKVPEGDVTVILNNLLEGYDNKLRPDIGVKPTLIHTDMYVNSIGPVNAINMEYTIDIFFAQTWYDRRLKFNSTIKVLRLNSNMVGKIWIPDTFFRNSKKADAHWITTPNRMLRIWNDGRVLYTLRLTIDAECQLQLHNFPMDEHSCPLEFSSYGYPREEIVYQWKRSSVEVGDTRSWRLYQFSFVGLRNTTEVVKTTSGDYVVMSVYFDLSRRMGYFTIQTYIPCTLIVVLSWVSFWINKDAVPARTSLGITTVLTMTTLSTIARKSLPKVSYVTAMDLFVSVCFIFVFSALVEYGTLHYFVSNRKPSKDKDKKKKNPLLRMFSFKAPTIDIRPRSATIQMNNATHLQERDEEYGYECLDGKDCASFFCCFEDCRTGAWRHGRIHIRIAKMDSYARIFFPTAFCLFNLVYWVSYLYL
T2 sequence (P34903 29-492): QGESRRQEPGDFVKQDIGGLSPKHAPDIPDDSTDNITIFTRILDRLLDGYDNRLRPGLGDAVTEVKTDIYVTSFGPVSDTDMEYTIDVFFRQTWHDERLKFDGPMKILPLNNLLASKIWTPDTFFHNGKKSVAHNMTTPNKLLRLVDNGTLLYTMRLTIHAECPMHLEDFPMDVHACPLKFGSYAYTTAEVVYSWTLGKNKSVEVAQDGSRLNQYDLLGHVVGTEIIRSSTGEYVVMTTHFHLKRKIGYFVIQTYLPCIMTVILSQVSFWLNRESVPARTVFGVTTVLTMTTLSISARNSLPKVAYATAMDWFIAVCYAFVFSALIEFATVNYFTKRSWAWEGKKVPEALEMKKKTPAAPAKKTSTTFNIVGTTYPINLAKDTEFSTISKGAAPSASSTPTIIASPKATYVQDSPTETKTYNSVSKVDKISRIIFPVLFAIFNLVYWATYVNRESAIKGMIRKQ
T2 sequence (P28472 26-473 partner): as the sequence (P28472 26-473 partner) above
T2 sequence (P18507 40-475): as the sequence (P18507 40-475) above
T3 sequence (P14867 28-456): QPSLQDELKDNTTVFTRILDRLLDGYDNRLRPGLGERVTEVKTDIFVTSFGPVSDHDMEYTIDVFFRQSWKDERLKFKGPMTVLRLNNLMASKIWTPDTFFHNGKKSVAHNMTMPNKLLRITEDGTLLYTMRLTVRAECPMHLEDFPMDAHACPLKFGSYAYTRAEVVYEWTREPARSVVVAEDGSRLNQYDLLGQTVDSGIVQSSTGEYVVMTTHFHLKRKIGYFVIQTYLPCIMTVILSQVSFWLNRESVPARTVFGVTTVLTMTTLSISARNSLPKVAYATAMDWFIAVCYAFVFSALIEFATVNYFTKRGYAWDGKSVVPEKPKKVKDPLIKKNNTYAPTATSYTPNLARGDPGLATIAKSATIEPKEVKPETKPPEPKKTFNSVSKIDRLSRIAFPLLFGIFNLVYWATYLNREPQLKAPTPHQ
T3 sequence (P28472 26-473 partner): as the sequence (P28472 26-473 partner) above
T3 sequence (P18507 40-475): as the sequence (P18507 40-475) above
T4 sequence (P31644 32-462): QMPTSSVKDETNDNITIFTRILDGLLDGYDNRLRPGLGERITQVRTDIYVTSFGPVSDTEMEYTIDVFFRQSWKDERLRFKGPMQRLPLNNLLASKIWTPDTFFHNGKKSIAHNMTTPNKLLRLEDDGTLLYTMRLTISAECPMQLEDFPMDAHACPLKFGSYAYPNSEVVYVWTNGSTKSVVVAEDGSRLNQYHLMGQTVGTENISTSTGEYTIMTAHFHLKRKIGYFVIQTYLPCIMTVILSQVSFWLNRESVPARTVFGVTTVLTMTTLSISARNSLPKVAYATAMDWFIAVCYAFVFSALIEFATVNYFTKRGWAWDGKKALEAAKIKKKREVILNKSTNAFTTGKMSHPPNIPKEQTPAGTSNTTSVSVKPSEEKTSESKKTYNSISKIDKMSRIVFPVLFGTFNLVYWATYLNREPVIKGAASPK
T4 sequence (P28472 26-473 partner): as the sequence (P28472 26-473 partner) above
T4 sequence (P18507 40-475): as the sequence (P18507 40-475) above

`CCNC(=O)c1ncn2c1[C@@H](C)N=C(c1ccccc1F)c1cc(C3CC3)ccc1-2` [GL-III-68, (R)-8-Cyclopropyl-N-ethyl-6-(2-fluorophenyl)-4-methyl-4H-benzo[f]imidazo[1,5-a][1,4]diazepine-3-carboxamide] was tested, and the EC50 (α2β3γ2 GABAA receptor) was 1.91 µM, the Emax (α2β3γ2 GABAA receptor; α2β3γ2, % of current produced by 5 μM GABA alone (set to 100%)) was 224% and the EC50 (α3β3γ2 GABAA receptor) was 3.52 µM. It also gave an Emax (α3β3γ2 GABAA receptor; α3β3γ2, % of current produced by 5 μM GABA alone (set to 100%)) of 209%, an EC50 (α1β3γ2 GABAA receptor) of 10.7 µM and an Emax (α1β3γ2 GABAA receptor; α1β3γ2, % of current produced by 5 μM GABA alone (set to 100%)) of 188%. For the same molecule, the EC50 (α5β3γ2 GABAA receptor) was < 0.03 µM, the Emax (α5β3γ2 GABAA receptor; α5β3γ2, % of current produced by 5 μM GABA alone (set to 100%)) was 188% and the “reversal of CRS-induced reduction of alternation rate (Y-maze)” value [1] was “reversed”.
